Results published in patent US12516049B2, “Sulfonylurea ring substituted monocyclic β-lactam antibiotics” (priority 2019, dated 2026).
≈ marks a conversion by molar mass, not a printed value. Like-named read-outs stand apart in the source and are kept apart here.

Tests used:
Type in all cases: cell-based
E.coli 020028 = assay: MIC, two-fold agar dilution, clinical isolate; details: Escherichia coli, single drug, average of three tests
Description: (§1) The minimum inhibitory concentration (MIC) of the compound and combination with β-lactamase (MBLs) inhibitors against clinically isolated carbapenem-resistant enterobacteriaceae was determined by the two-fold agar dilution method to determine the activity of the compound to be tested against strains producing MBLs. Antibiotics and enzyme inhibitors were weighed separately and dissolved in sterile ultrapure water or dimethyl sulfoxide to prepare mother liquor, MHA medium was prepared, pH was adjusted to 7.2-7.4, and it was sterilized at 121° C. for 15 minutes and placed in a 55° C. water bath for heat preservation. The mother liquor was diluted to the concentration to be tested by double dilution method, an inoculum liquid was prepared by direct bacterial suspension method, 1 mL of the prepared bacteria solution was withdrawn and putted into the inoculation tube, and a positioning needle and an inoculation needle were installed. A bacterial multi-point inoculator was started for inoculation. After the bacterial solution was absorbed by the agar, the plate was placed upside down in an incubator at 37° C. for 16-20 hours, and the results were observed. The average of three tests was taken.

E.coli 020031 = assay: MIC, two-fold agar dilution, clinical isolate; details: Escherichia coli, single drug, average of three tests
Description: as §1

E.coli 020033 = assay: MIC, two-fold agar dilution, clinical isolate; details: Escherichia coli, single drug, average of three tests
Description: as §1

E.coli 115103 = assay: MIC, two-fold agar dilution, clinical isolate; details: Escherichia coli
Description: as §1

E.coli BAA-2452 = assay: MIC, two-fold agar dilution, clinical isolate; details: Escherichia coli, BAA2452; E.coli BAA-2452; single drug; average of three tests; read-out: MIC
Description: as §1

E.coli C1569 = assay: MIC, two-fold agar dilution, clinical isolate; details: Escherichia coli, single drug, average of three tests
Description: as §1

E.coli CRE18 = assay: MIC, two-fold agar dilution, clinical isolate; details: Escherichia coli
Description: as §1

E.coli CRE21 = assay: MIC, two-fold agar dilution, clinical isolate; details: Escherichia coli
Description: as §1

E.coli CRE23 = assay: MIC, two-fold agar dilution, clinical isolate; details: Escherichia coli
Description: as §1

E.coli CRE28 = assay: MIC, two-fold agar dilution, clinical isolate; details: Escherichia coli
Description: as §1

K.p 090339 = assay: MIC, two-fold agar dilution, clinical isolate; details: K.p 090339; single drug; average of three tests; read-out: MIC
Description: as §1

K.p 115004 = assay: MIC, two-fold agar dilution, clinical isolate; details: K.p 115004; single drug; average of three tests; read-out: MIC
Description: as §1

K.p 11544 = assay: MIC, two-fold agar dilution, clinical isolate
Description: as §1

K.p 13249 = assay: MIC, two-fold agar dilution, clinical isolate
Description: as §1

K.p 6777 = assay: MIC, two-fold agar dilution, clinical isolate
Description: as §1

K.p BAA-2470 = assay: MIC, two-fold agar dilution, clinical isolate
Description: as §1

K.p C904 = assay: MIC, two-fold agar dilution, clinical isolate
Description: as §1

K.p CRE11 = assay: MIC, two-fold agar dilution, clinical isolate
Description: as §1

K.p CRE12 = assay: MIC, two-fold agar dilution, clinical isolate; details: single drug, average of three tests
Description: as §1

K.p CRE16 = assay: MIC, two-fold agar dilution, clinical isolate; details: single drug, average of three tests
Description: as §1

K.p HX37 = assay: MIC, two-fold agar dilution, clinical isolate
Description: as §1

K.p HX77 = assay: MIC, two-fold agar dilution, clinical isolate; details: single drug, average of three tests
Description: as §1

[1] = tested on: Morganella morganii C1274; assay: MIC, two-fold agar dilution, clinical isolate; details: Morganella morganii C1274; single drug; average of three tests; read-out: MIC
Description: as §1

E.coli 115101 = assay: MIC, two-fold agar dilution, clinical isolate; details: Escherichia coli, 115101
Description: as §1, with “Antibiotics and enzyme inhibitors were weighed separately and dissolved in sterile ultrapure water or dimethyl sulfoxide to prepare mother liquor, MHA medium was prepared, pH was adjusted to 7.2-7.4, and it was sterilized at 121° C. for 15 minutes and placed in a 55° C. water bath for heat preservation.” left out

E.coli 115105 = assay: MIC, two-fold agar dilution, clinical isolate; details: Escherichia coli, single drug, average of three tests
Description: as §1, with “Antibiotics and enzyme inhibitors were weighed separately and dissolved in sterile ultrapure water or dimethyl sulfoxide to prepare mother liquor, MHA medium was prepared, pH was adjusted to 7.2-7.4, and it was sterilized at 121° C. for 15 minutes and placed in a 55° C. water bath for heat preservation.” left out

K.p HX30 = assay: MIC, two-fold agar dilution, clinical isolate
Description: as §1, with “Antibiotics and enzyme inhibitors were weighed separately and dissolved in sterile ultrapure water or dimethyl sulfoxide to prepare mother liquor, MHA medium was prepared, pH was adjusted to 7.2-7.4, and it was sterilized at 121° C. for 15 minutes and placed in a 55° C. water bath for heat preservation.” left out

[2] = tested on: Enterobacter cloacae ATCC BAA-1143 (AmpC); assay: MIC, micro-liquid dilution (CLSI); details: ATCCBAA1143, E. cloacae ATCC BAA-1143, Class C (AmpC), 20-24 h, 37° C.
Description: (§2) Three strains of Klebsiella pneumonia, ATCC BAA-205 (TEM-1/SHV-1/SHV-12), ATCC BAA-1705 (KPC-2), ATCC BAA-2470 (NDM-1), Enterobacter cloacae ATCC BAA-1143 (AmpC), two strains of Escherichia coli ATCC BAA-2523 (OXA-48), ATCC 25922 were used to determine the minimum inhibitory concentration (MIC) of each of the compounds by micro-liquid dilution method according to the Institute of Clinical and Laboratory Standard (CLSI) requirements. […]. The plate was placed upside down at 37° C. and the MIC value was read after 20-24 h of incubation, and the lowest drug concentration that inhibited the growth of bacteria was set as MIC. Colony-Forming Units (CFU) refer to the total number of bacterial colonies per unit volume.

[3] = tested on: Escherichia coli ATCC 25922; assay: MIC, micro-liquid dilution (CLSI); details: ATCC25922, E. coli ATCC 25922, 20-24 h, 37° C.
Description: as §2

[4] = tested on: Escherichia coli ATCC BAA-2523 (OXA-48); assay: MIC, micro-liquid dilution (CLSI); details: ATCCBAA2523, E. coli ATCC BAA-2523, Class D (OXA-48), 20-24 h, 37° C., read-out: MIC
Description: as §2

[5] = tested on: Klebsiella pneumonia ATCC BAA-1705 (KPC-2); assay: MIC, micro-liquid dilution (CLSI); details: Klebsiella pneumoniae, ATCCBAA1705; K. pneumonia ATCC BAA-1705, Class A (KPC-2); 20-24 h, 37° C.
Description: as §2

[6] = tested on: Klebsiella pneumonia ATCC BAA-205 (TEM-1/SHV-1/SHV-12); assay: MIC, micro-liquid dilution (CLSI); details: Klebsiella pneumoniae, ATCCBAA205; K. pneumonia ATCC BAA-205, Class A (TEM-1/SHV-1/SHV-12); 20-24 h, 37° C.
Description: as §2

[7] = tested on: Klebsiella pneumonia ATCC BAA-2470 (NDM-1); assay: MIC, micro-liquid dilution (CLSI); details: Klebsiella pneumoniae, ATCCBAA2470; K. pneumonia ATCC BAA-2470, Class B (NDM-1); 20-24 h, 37° C.
Description: as §2

[8] = tested on: clinically isolated carbapenem-resistant enterobacteriaceae; details: single drug; panel of 26 strains of Table 2
Description: as §1, with “Antibiotics and enzyme inhibitors were weighed separately and dissolved in sterile ultrapure water or dimethyl sulfoxide to prepare mother liquor, MHA medium was prepared, pH was adjusted to 7.2-7.4, and it was sterilized at 121° C. for 15 minutes and placed in a 55° C. water bath for heat preservation.” left out

Row | SMILES | MIC (E.coli 020028) [µg/mL] | MIC (E.coli 020031) [µg/mL] | MIC (E.coli 020033) [µg/mL] | MIC (E.coli BAA-2452) [µg/mL] | MIC (E.coli C1569) [µg/mL] | MIC (K.p 090339) [µg/mL] | MIC (K.p 115004) [µg/mL] | MIC (K.p CRE12) [µg/mL] | MIC (K.p CRE16) [µg/mL] | MIC (K.p HX77) [µg/mL] | MIC [1] [µg/mL] | MIC [2] [µg/mL] | MIC [3] [µg/mL] | MIC [4] [µg/mL] | MIC [5] [µg/mL] | MIC [6] [µg/mL] | MIC [7] [µg/mL] | also measured
1 | C[C@H]1[C@H](NC(=O)/C(=N\OC(C)(C)C(=O)O)c2csc(N)n2)C(=O)N1S(=O)(=O)O [Aztreonam] | 16 | 4 | 32 | 16 | 1 | 64 | 64 | 4 | 64 | 16 | 4 |  |  |  |  |  |  | MIC (E.coli 115103; 115103): 128 µg/mL; MIC (E.coli CRE18; CRE18): > 128 µg/mL; MIC (E.coli CRE21; CRE21): > 128 µg/mL; MIC (E.coli CRE23; CRE23): > 128 µg/mL; MIC (E.coli CRE28; CRE28): > 128 µg/mL; MIC (K.p 11544): > 128 µg/mL; MIC (K.p 13249): > 128 µg/mL; MIC (K.p 6777): 128 µg/mL; MIC (K.p BAA-2470): > 128 µg/mL; MIC (K.p C904): > 128 µg/mL; MIC (K.p CRE11): 128 µg/mL; MIC (K.p HX37): > 128 µg/mL; MIC (E.coli 115101): > 128 µg/mL; MIC (E.coli 115105): 16 µg/mL; MIC (K.p HX30): > 128 µg/mL
2 | Nc1nc(/C(=N/OC2(C(=O)O)CC2)C(=O)N[C@@H]2C(=O)N(S(=O)(=O)O)[C@@H]2CN2CCCNS2(=O)=O)cs1 [Compound 2] |  |  |  |  |  |  |  |  |  |  |  | 2 (≈ 3.52 µM) | 4 (≈ 7.05 µM) | 1 (≈ 1.76 µM) | 2 (≈ 3.52 µM) | 1 (≈ 1.76 µM) | 1 (≈ 1.76 µM) | 
3 | CC(=O)NC[C@@H]1CN(C[C@@H]2[C@H](NC(=O)/C(=N\OC3(C(=O)O)CC3)c3csc(N)n3)C(=O)N2S(=O)(=O)O)S(=O)(=O)N1 [Compound 6] |  |  |  |  |  |  |  |  |  |  |  | 1 (≈ 1.6 µM) | 4 (≈ 6.4 µM) | 0.25 (≈ 0.4 µM) | 8 (≈ 12.8 µM) | 2 (≈ 3.2 µM) | 1 (≈ 1.6 µM) | 
4 | CC(=O)OC[C@@H]1CN(C[C@@H]2[C@H](NC(=O)/C(=N\OC3(C(=O)O)CC3)c3csc(N)n3)C(=O)N2S(=O)(=O)O)S(=O)(=O)N1 [Compound 3] |  |  |  |  |  |  |  |  |  |  |  | 2 (≈ 3.2 µM) | 4 (≈ 6.39 µM) | 0.25 (≈ 0.4 µM) | 2 (≈ 3.2 µM) | 2 (≈ 3.2 µM) | 1 (≈ 1.6 µM) | 
5 | N=C(N)NC[C@@H]1CN(C[C@@H]2[C@H](NC(=O)/C(=N\OC3(C(=O)O)CC3)c3csc(N)n3)C(=O)N2S(=O)(=O)O)S(=O)(=O)N1 [Compound 5] |  |  |  |  |  |  |  |  |  |  |  | 1 (≈ 1.6 µM) | 0.5 (≈ 0.8 µM) | 0.25 (≈ 0.4 µM) | 1 (≈ 1.6 µM) | 1 (≈ 1.6 µM) | 0.5 (≈ 0.8 µM) | 
6 | C[C@@H](O)[C@H]1C(=O)N2C(C(=O)O)=C(S[C@@H]3CN[C@H](C(=O)N(C)C)C3)[C@H](C)[C@H]12 [Meropenem] | 16 | 32 | 32 | 16 | 16 | 16 | 16 | 16 | 8 | 16 | 2 |  |  |  |  |  |  | MIC (E.coli 115103; E.coli 115103, single drug, average of three tests, read-out: MIC): 16 µg/mL; MIC (E.coli CRE18; E.coli CRE18, single drug, average of three tests, read-out: MIC): 32 µg/mL; MIC (E.coli CRE21; E.coli CRE21, single drug, average of three tests, read-out: MIC): 64 µg/mL; MIC (E.coli CRE23; E.coli CRE23, single drug, average of three tests, read-out: MIC): 32 µg/mL; MIC (E.coli CRE28; E.coli CRE28, single drug, average of three tests, read-out: MIC): 32 µg/mL; MIC (K.p 11544; K.p 11544, single drug, average of three tests, read-out: MIC): 16 µg/mL; MIC (K.p 13249; K.p 13249, single drug, average of three tests, read-out: MIC): 32 µg/mL; MIC (K.p 6777; K.p 6777, single drug, average of three tests, read-out: MIC): 8 µg/mL; MIC (K.p BAA-2470; K.p BAA-2470, single drug, average of three tests, read-out: MIC): 32 µg/mL; MIC (K.p C904; K.p C904, single drug, average of three tests, read-out: MIC): 16 µg/mL; MIC (K.p CRE11; K.p CRE11, single drug, average of three tests, read-out: MIC): 32 µg/mL; MIC (K.p HX37; K.p HX37, single drug, average of three tests, read-out: MIC): 32 µg/mL; MIC50 [8]: 16 µg/mL
